Results published in patent publication US20250170115A1, “LENALIDOMIDE ORAL SOLUTION” (A FINE HOUSE S.A., priority 2021, published 2025).

Assay: Precipitation after preparation of lenalidomide compositions without glycol or polyol
Assay type: physicochemical
Conditions: lenalidomide dissolved in an aqueous buffer at pH between 1.0 and 3.5; a few minutes
Experimental: A composition was prepared according to example 23 of WO 1998/03502. The solution contained 5.0 g lenalidomide, 22.5 g sodium chloride, 300.0 g phosphate buffer with pH 7.4 and demineralized water. The pH of the final composition was 7.4.
Similar results (i.e. precipitation) were obtained a few minutes after lenalidomide was dissolved in an aqueous buffer at pH between 1.0 and 3.5.
Likewise, attempts to prepare an oral solution by combining lenalidomide with any one of arginine, leucine, povidone K25, sodium lauryl sulfate, hydroxypropyl methylcellulose, poloxamer 20, in an aqueous buffer at pH 2.0 or pH 2.5 led to the formation of precipitate within minutes of the preparation of the compositions.

- precipitation after dissolution: precipitation
Compound: Nc1cccc2c1CN(C1CCC(=O)NC1=O)C2=O (racemic) [Lenalidomide, 1-oxo-(2,6-dioxopiperidin-3-yl)-4-aminoisoindoline]
